Entries after “also recorded” stand apart in the source; their conditions may differ. Where two headings read alike, the source gives them in different places.
Assays:
CD3+ΔCD19+ cells = experiment: CASPALLO phase I clinical trial, AP1903 in patients with GvHD after iCasp9 T cells; format: in vivo, human
[1] = cited from earlier work; for safety and tolerability: healthy volunteers, 0.01-1.0 mg/kg
human CD3+CD19+ T cells = experiment: AP1903 dose-dependent elimination in vivo of transduced T cells in NSG mice; set-up: species or system mouse; details: T cells with wild-type iCasp9, i.p., 24 hours
Protocol: T cells were transduced with SFG-iCasp9-2A-ΔCD19 retrovirus and injected i.v. into immune deficient mice (NSG). […] After an additional 24 hours, mice were sacrificed and lymphocytes from the spleen (FIG. 61A) and peripheral blood (FIG. 61B) were isolated and analyzed by flow cytometry for the frequency of human CD3+CD19+ T cells.
T cells were transduced with SFG-iCasp9-D330E-2A-ΔCD19 retrovirus and injected i.v. into immune deficient mice (NSG). […] After an additional 24 hours, mice were sacrificed and lymphocytes from the spleen (A) were isolated and analyzed by flow cytometry for the frequency of human CD3+CD19+ T cells.

[2] = biological target: chimeric caspase-9 polypeptide (Homo sapiens, UniProt P55211+P62942, F37V); experiment: AP1903-triggered apoptosis/signaling of cells expressing chimeric caspase-9 polypeptide; format: cell-based
HEK293T/16 cells [3] = experiment: Western blot of protein expression and proteolysis; format: cell-based, human
Protocol: The lysates were collected and lysed on ice for 30 min. After pelleting cell debris, protein concentrations from overlying supernatants were measured in 96-well plates with BCA™ Protein Assay as recommended by the manufacturer. 30 μg of proteins were boiled in Laemmli sample buffer (Bio-Rad, Hercules, Calif.) with 2.5% 2-mercaptoethanol for 5 min at 95° C. before being separated by Criterion TGX 10% Tris/glylcine protein gel. Membranes were probed with 1/1000 rabbit anti-human caspase-9 polyclonal antibody followed by 1/10,000 HRP-conjugated goat anti-rabbit IgG F(ab′)2 secondary antibody (Bio-Rad). Protein bands were detected using Supersignal West Femto chemiluminescent substrate. To ensure equivalent sample loading, blots were stripped at 65° C. for 1 hour with Restore PLUS Western Blot Stripping Buffer before labeling with 1/10,000 rabbit anti-actin polyclonal antibody. Unless otherwise stated, all the reagents were purchased from Thermo Scientific.

HEK293T/16 cells [4] = experiment: SEAP reporter-based surrogate killing assay (basal activity and AP1903 IC50); format: cell-based, human; details: for relative SEAP activity Units (basal activity): no AP1903, higher SEAP = lower basal activity; for basal activity / basal signaling (in words): AP1903-independent SEAP activity, vs wild type
How it was run: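 HEK293T/16 cells transiently co-transfected with iCasp9 mutant plasmid (800 ng–2 μg) and SRα-driven SEAP plasmid (500 ng) per million cells. Supernatants heat-treated 65 °C, 45 min, then SEAP read by 4-MUP hydrolysis fluorescence (ex/em 355/460 nm). Lower SEAP signal indicates higher iCasp9 activity, i.e. cell killing.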

PG13 packaging cells = format: cell-based
Activated T cells = experiment: Control of T cell proliferation in vitro over 10 days with AP1903; format: cell-based, human; details: AP1903 on days 0 and 4, 10 days

Chain of chimeric caspase-9 polypeptide (P62942 2-108 F37V limits assumed): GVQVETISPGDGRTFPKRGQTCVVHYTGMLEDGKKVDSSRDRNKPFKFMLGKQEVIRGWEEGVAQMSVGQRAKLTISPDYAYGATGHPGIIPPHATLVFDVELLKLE
Chain of chimeric caspase-9 polypeptide (P55211 135-416 limits assumed): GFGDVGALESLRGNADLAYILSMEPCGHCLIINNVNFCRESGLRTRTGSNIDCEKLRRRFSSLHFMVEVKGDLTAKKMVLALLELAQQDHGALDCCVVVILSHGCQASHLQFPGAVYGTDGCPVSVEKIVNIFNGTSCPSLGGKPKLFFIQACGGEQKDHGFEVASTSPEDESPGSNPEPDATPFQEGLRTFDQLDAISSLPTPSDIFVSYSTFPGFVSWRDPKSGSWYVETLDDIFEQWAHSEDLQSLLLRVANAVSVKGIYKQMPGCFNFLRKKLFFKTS

Molecule	time to normalization of bilirubin concentration (CD3+ΔCD19+ cells; patient 1, post-treatment) [h]	time to disappearance of skin rash (CD3+ΔCD19+ cells; patient 2, post treatment) [h]	time to resolution of skin and liver aGvHD (CD3+ΔCD19+ cells; patients with grade I/II aGVHD) [h]	ablation of CD3+ΔCD19+ cells (CD3+ΔCD19+ cells; within 30 minutes of infusion, 0.4 mg/kg) [%]	further reduction of CD3+ΔCD19+ cells (CD3+ΔCD19+ cells; within 24 hours)	adverse event considered possibly related ([1]; 1 volunteer at 1.0 mg/kg, facial flushing)	plasma level, % of maximal concentration ([1]; 2 hours post-dose) [%]	plasma level, % of maximal concentration ([1]; 10 hours post-dose) [%]	safety and tolerability [1]	safety and tolerability ([1]; listed as API903)	AP1903 dose sufficient to eliminate most modified T cells in vivo (human CD3+CD19+ T cells) [mg/kg]	amount of AP1903 needed in vitro for effective signaling of cells [2] [nM]	cleavage in response to AP1903 (HEK293T/16 cells [3])	relative SEAP activity Units (basal activity) (HEK293T/16 cells [4]; 1 μg iCasp9 per million cells)	relative SEAP activity Units (basal activity) (HEK293T/16 cells [4]; 2 μg iCasp9 per million cells)	basal activity / basal signaling (in words) (HEK293T/16 cells [4])	basal activity / basal signaling (in words) (HEK293T/16 cells [4]; listed as D330A N405Q)	CD19 mean fluorescence intensity (MFI) of transduced PG13 cells (PG13 packaging cells)	viral titers (PG13 packaging cells)	T cell proliferation and survival (Activated T cells)
CC[C@H](C(=O)N1CCCC[C@H]1C(=O)O[C@H](CCc1ccc(OC)c(OC)c1)c1cccc(OCC(=O)NCCNC(=O)COc2cccc([C@@H](CCc3ccc(OC)c(OC)c3)OC(=O)[C@@H]3CCCCN3C(=O)[C@@H](CC)c3cc(OC)c(OC)c(OC)c3)c2)c1)c1cc(OC)c(OC)c(OC)c1 (relative stereo) [AP1903, 2-Piperidinecarboxylic acid, 1-[(2S)-1-oxo-2-(3,4,5-trimethoxyphenyl)butyl]-, 1,2-ethanediylbis[imino(2-oxo-2,1-ethanediyl)oxy-3,1-phenylene[(1R)-3-(3,4-dimethoxyphenyl)propylidene]]ester, [2S-[1(R*),2R*[S*[S*[1(R*),2R*]]]]]-(9Cl)]	≤ 24	≤ 24	≤ 24	> 90	further log reduction	vasodilatation	~7	~1	proven safe in healthy volunteers; also recorded: safe and well tolerated at all dose levels; also recorded: proven safe at the required dose; also recorded: substantially no significant adverse effects	No serious adverse events	0.5	0.1 to 10								
D330A-N405Q: ΔCasp9 (res. 135-416) D330A N405Q, SEQ ID NO: 28 (protein) GFGDVGALESLRGNADLAYILSMEPCGHCLIINNVNFCRESGLRTRTGSNIDCEKLRRRFSSLHFMVEVKGDLTAKKMVLALLELARQDHGALDCCVVVILSHGCQASHLQFPGAVYGTDGCPVSVEKIVNIFNGTSCPSLGGKPKLFFIQACGGEQKDHGFEVASTSPEDESPGSNPEPDATPFQEGLRTFDQLAAISSLPTPSDIFVSYSTFPGFVSWRDPKSGSWYVETLDDIFEQWAHSEDLQSLLLRVANAVSVKGIYKQMPGCFQFLRKKLFFKTS													impaired cleavage	205772	174366	intermediate; also recorded: lower basal signaling compared to the wild-type caspase-9	low to undetectable basal activity			
N405Q: ΔCasp9 (res. 135-416) N405Q, SEQ ID NO: 26 (protein) GFGDVGALESLRGNADLAYILSMEPCGHCLIINNVNFCRESGLRTRTGSNIDCEKLRRRFSSLHFMVEVKGDLTAKKMVLALLELARQDHGALDCCVVVILSHGCQASHLQFPGAVYGTDGCPVSVEKIVNIFNGTSCPSLGGKPKLFFIQACGGEQKDHGFEVASTSPEDESPGSNPEPDATPFQEGLRTFDQLDAISSLPTPSDIFVSYSTFPGFVSWRDPKSGSWYVETLDDIFEQWAHSEDLQSLLLRVANAVSVKGIYKQMPGCFQFLRKKLFFKTS													impaired cleavage	179081	175529			higher levels of CD19; also recorded: enhanced CD19 mean fluorescence intensity; also recorded: higher CD19 MFIs than the other cohorts	higher viral titers	indistinguishable from wild type caspase-9 polypeptide or D330A
